Values quoted from earlier work, collected in patent publication US20210186870A1, “IMPROVED CANNABINOID BIOAVAILABILITY” (EMERALD HEALTH TH[…] INC., priority 2018, published 2021).
Read-outs that look alike come from different tables or passages of the source.

CCCCCc1cc(O)c2c(c1)OC(C)(C)[C@@H]1CCC(C)=C[C@@H]21 [THC, tetrahydrocannabinol]
bioavailability of THC (from inhaled cannabis smoke): 2-56%
bioavailability of THC (orally consumed cannabis): 4-20%
